Where only a bound is given, the exact number is not on record here.

In this experiment the target is T1, P2X7 receptor (IL-1β release from THP-1 cells) (Homo sapiens, UniProt Q99572).
T1 construct: host or cells: THP-1 cells differentiated with LPS and IFN-γ
T1 sequence (Q99572 1-595): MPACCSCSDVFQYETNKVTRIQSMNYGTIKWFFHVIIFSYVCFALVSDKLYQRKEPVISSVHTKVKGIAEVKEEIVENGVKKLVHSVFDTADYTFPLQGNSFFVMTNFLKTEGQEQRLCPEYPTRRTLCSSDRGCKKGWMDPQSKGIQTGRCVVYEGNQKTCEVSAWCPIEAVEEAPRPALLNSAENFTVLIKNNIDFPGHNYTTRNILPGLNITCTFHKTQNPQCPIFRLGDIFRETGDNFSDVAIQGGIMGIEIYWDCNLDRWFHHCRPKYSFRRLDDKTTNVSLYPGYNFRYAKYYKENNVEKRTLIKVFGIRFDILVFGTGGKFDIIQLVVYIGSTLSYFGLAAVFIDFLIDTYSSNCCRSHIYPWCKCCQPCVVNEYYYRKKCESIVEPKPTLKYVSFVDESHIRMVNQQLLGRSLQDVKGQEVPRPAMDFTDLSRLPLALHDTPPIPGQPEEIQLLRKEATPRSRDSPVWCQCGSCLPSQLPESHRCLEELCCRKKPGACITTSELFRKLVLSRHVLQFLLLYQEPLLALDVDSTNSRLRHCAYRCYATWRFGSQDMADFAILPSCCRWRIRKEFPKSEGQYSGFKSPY
The experiment is described as follows: IL-1β release assay in differentiated THP-1 cells stimulated with BzATP (Example 9). It counts as cell-based. The note with it: for inhibition at 0.1 µM: 0.1 μM concentration; for inhibition at 0.1 µM / inhibition at 0.3 µM: read-out: IL-1β % Inhib. @ 0.3 or 0.1 μM; for IC50: released IL-1β as in Example 9, four parameter logistic fit. The procedure: The cells are then pretreated for 30 minutes with the compound of interest at the appropriate concentration in RPMI media containing 100 IU/mL penicillin, 100 ug/mL streptomycin. […] 30 uL of cell supernatant is then collected and IL-1β levels determined via ELISA (R&D systems Cat. #HSLB50) according to manufacturer's recommendations using the Tecan Safire plate reader. Background adjusted IL-1β levels of drug treated and non-treated cells are used to calculate the percent inhibition.
The compounds set forth in Table 1 were tested for activity in a cellular model as described herein. […] Measurements were made and IC50 values, presented in Table 2, below, were determined by fitting the data to a four parameter logistic equation using GraphPad Prism software (GraphPad Software, Inc). The equation may be expressed by the following formula:
Y=Bottom+(Top−Bottom)/(1+10̂((Log EC50−X)*HillSlope))
Where X is the logarithm of concentration, Y is the response and Y starts at Bottom and goes to Top with a sigmoid shape.

[1] abbreviates: 0.3 μM concentration, BzATP 250 uM.

`NC(=O)[C@H](Cc1ccccc1)n1ccc2c(NC(=O)CC34CC5CC(CC(C5)C3)C4)cccc2c1=O` [Compound 502]: the inhibition at 0.1 µM (BzATP 250 uM) was 51 to 75%.

Regarding `CC1CNC(CN2CCc3c(NC(=O)CC45CC6CC(CC(C6)C4)C5)cccc3C2=O)CN1` (stereo not drawn) [Compound 503], the inhibition at 0.1 µM (BzATP 250 uM) is over 76%. With `O=C(CC12CC3CC(CC(C3)C1)C2)Nc1cccc2c(=O)n(CC3CCCN3)ccc12` (stereo not drawn) [Compound 504], the half-maximal inhibitory concentration (IC50) stood at 1.56 nM. Besides, the inhibition at 0.3 µM under setting [1] is over 76%. For `O=C(CC12CC3CC(CC(C3)C1)C2)Nc1cccc2c(=O)n(C[C@@H]3CCCN3)ccc12` [Compound 505], the half-inhibitory concentration (IC50) came out at 0.65 nM. Moreover, the inhibition at 0.3 µM under setting [1] is over 76%. Turning to `O=C(CC12CC3CC(CC(C3)C1)C2)Nc1cccc2c(=O)n(C[C@H]3CCCN3)ccc12` [Compound 506], the IC50 was found to be 1 nM. Moreover, the inhibition at 0.3 µM under setting [1] was over 76%. The matching figures for `NC(=O)Cn1ccc2c(NC(=O)CC34CC5CC(CC(C5)C3)C4)cccc2c1=O` [Compound 509]: 0.271 nM and over 76%. `NC(=O)CCn1ccc2c(NC(=O)CC34CC5CC(CC(C5)C3)C4)cccc2c1=O` [Compound 510]: the IC50 is 1.04 nM. The inhibition at 0.3 µM under setting [1] is over 76%.

For the compound `NC(=O)[C@@H](CC1CCCCC1)n1ccc2c(NC(=O)CC34CC5CC(CC(C5)C3)C4)cccc2c1=O` [Compound 513], the half-maximal inhibitory concentration (IC50) turned out to be 33.7 nM. The inhibition at 0.3 µM under setting [1] is over 76%. The matching figures for `NC(=O)C(Cc1c[nH]cn1)n1ccc2c(NC(=O)CC34CC5CC(CC(C5)C3)C4)cccc2c1=O` (stereo not drawn) [Compound 514]: 1.36 nM and over 76%.

Regarding `CC(C)C(CO)n1ccc2c(NC(=O)CC34CC5CC(CC(C5)C3)C4)cccc2c1=O` (stereo not drawn) [Compound 516, 2-Adamantan-1-yl-N-[2-(1-hydroxymethyl-2-methyl-propyl)-1-oxo-1,2-dihydro-isoquinolin-5-yl]-acetamide], the IC50 was found to be 0.049 nM. Moreover, the inhibition at 0.3 µM under setting [1] is over 76%. For `C[C@@H](CO)n1ccc2c(NC(=O)CC34CC5CC(CC(C5)C3)C4)cccc2c1=O` [Compound 521] the same measures were 0.315 nM and over 76%.

As for `CC12CC3CC(C)(C1)CC(CC(=O)Nc1cccc4c(=O)n(CC(N)=O)ccc14)(C3)C2` [Compound 523], the IC50 was 1.5 nM. The inhibition at 0.3 µM under setting [1] was over 76%.

On to `C[C@@H](CO)n1ccc2c(NC(=O)CC34CC5CC(C)(CC(C)(C5)C3)C4)cccc2c1=O` [Compound 524], for which the IC50 amounted to 0.204 nM. Further, the inhibition at 0.3 µM under setting [1] is over 76%. The matching figures for `C[C@H](CO)n1ccc2c(NC(=O)CC34CC5CC(C)(CC(C)(C5)C3)C4)cccc2c1=O` [Compound 525]: 3.23 nM and over 76%.

For the compound `C[C@@H](CO)N1CCc2c(NC(=O)CC34CC5CC(CC(C5)C3)C4)cccc2C1=O` [Compound 527], the half-maximal inhibitory concentration (IC50) worked out at 0.149 nM. Besides, under setting [1], the inhibition at 0.3 µM was over 76%. `CC(C)[C@H](C(N)=O)n1ccc2c(NC(=O)CC34CC5CC(CC(C5)C3)C4)cccc2c1=O` [Compound 528]: the concentration for half-maximal inhibition (IC50) was found to be 0.181 nM. Also, the inhibition at 0.3 µM under setting [1] is over 76%. Turning to `CC(C(N)=O)n1ccc2c(NC(=O)CC34CC5CC(C)(CC(C)(C5)C3)C4)cccc2c1=O` (stereo not drawn) [Compound 531], the half-maximal inhibitory concentration (IC50) turned out to be 4.13 nM. Under setting [1], the inhibition at 0.3 µM is over 76%. With `CC(C)(C)OC(=O)N1CCC(CC(=O)Nc2cccc3c(=O)n(CCO)ccc23)CC1` [Compound 532], the IC50 is over 1000 nM. Moreover, the inhibition at 0.3 µM under setting [1] fell in the range of 0 to 25%. The matching figures for `NC(=O)CN1CCc2c(NC(=O)CC34CC5CC(CC(C5)C3)C4)cccc2C1=O` [Compound 533]: 4.79 nM and over 76%. Turning to `C[C@H](CO)N1CCc2c(NC(=O)CC34CC5CC(C)(CC(C)(C5)C3)C4)cccc2C1=O` [Compound 534], the IC50 is 11.5 nM. The inhibition at 0.3 µM under setting [1] is over 76%. Regarding `C[C@@H](CO)N1CCc2c(NC(=O)CC34CC5CC(C)(CC(C)(C5)C3)C4)cccc2C1=O` [Compound 535], the half-maximal inhibitory concentration (IC50) was found to be 0.341 nM. In addition, the inhibition at 0.3 µM under setting [1] was over 76%.

As for `CC(C)[C@H](C(N)=O)n1ccc2c(NC(=O)CC34CC5CC(CC(C5)C3)C4)cccc2c1=O` [Compound 536], the half-inhibitory concentration (IC50) was 0.202 nM. In addition, under setting [1], the “IL-1β % Inhib. @ 0.3 or 0.1 μM” value was “++++ (compound exhibited 76% or greater inhibition at 0.3 μM concentration)”.

For the compound `CC(C)(C)OC(=O)N1CCC(C(=O)Nc2cccc3c(=O)n(CCO)ccc23)CC1` [Compound 537], the 50% inhibitory concentration (IC50) was over 1000 nM. Besides, the inhibition at 0.3 µM under setting [1] fell in the range of 0 to 25%. As for `CC(C)C(CO)n1ccc2c(NC(=O)CC3CCCCCC3)cccc2c1=O` (stereo not drawn) [Compound 538], the concentration for half-maximal inhibition (IC50) came out at 1.86 nM. In addition, the inhibition at 0.3 µM under setting [1] was over 76%. In the case of `C[C@H]1CC[C@H](C(=O)Nc2cccc3c(=O)n(CC4(O)CCCCC4)ccc23)CC1` [Compound 539], the inhibition at 0.1 µM (BzATP 250 uM) was in the range of 0 to 25%. Regarding `O=C(CC1CCCCC1)Nc1cccc2c(=O)n(CCO)ccc12` [Compound 545], the 50% inhibitory concentration (IC50) is 906 nM. Under setting [1], the inhibition at 0.3 µM was in the range of 0 to 25%. As to `CC1(C)CC(C)(C)CC(O)(CC(=O)Nc2cccc3c(=O)n(CCO)ccc23)C1` [Compound 546], the concentration for half-maximal inhibition (IC50) was 135 nM. For the same compound, under setting [1], the inhibition at 0.3 µM is over 76%. With `CC1(C)CCCC(O)(CC(=O)Nc2cccc3c(=O)n(CCO)ccc23)C1` (stereo not drawn) [Compound 547], the IC50 is 287 nM. For the same compound, the inhibition at 0.3 µM under setting [1] lay in the range of 51 to 75%. On to `O=C(CC12CC3CC(CC(C3)C1)C2)Nc1cccc2c1CCN(CCO)C2=O` [Compound 549, 2-Adamantan-1-yl-N-[2-(2-hydroxy-ethyl)-1-oxo-1,2,3,4-tetrahydro-isoquinolin-5-yl]-acetamide], for which the half-maximal inhibitory concentration (IC50) is 1.37 nM. Besides, the inhibition at 0.3 µM under setting [1] was over 76%. For `O=C(CC1CCCCC1)Nc1cccc2c(=O)n(C(CO)CO)ccc12` [Compound 550], the half-inhibitory concentration (IC50) is 266 nM. The inhibition at 0.3 µM under setting [1] lay within 51 to 75%. Regarding `NC(=O)C(CO)n1ccc2c(NC(=O)CC3CCCCCC3)cccc2c1=O` (stereo not drawn) [Compound 551, 2-[5-(2-Cycloheptyl-acetylamino)-1-oxo-1H-isoquinolin-2-yl]-3-hydroxy-propionamide], the IC50 is 32.7 nM. Under setting [1], the inhibition at 0.3 µM is over 76%.

Regarding `O=C(CC1(O)CCCCCC1)Nc1cccc2c(=O)n(C(CO)CO)ccc12` [Compound 552], the concentration for half-maximal inhibition (IC50) amounted to 760 nM. The inhibition at 0.3 µM under setting [1] was 0 to 25%. Take `CC1(C)CCCC(O)(CC(=O)Nc2cccc3c(=O)n(C(CO)CO)ccc23)C1` (stereo not drawn) [Compound 553]: the IC50 stood at 203 nM. The inhibition at 0.3 µM under setting [1] lay in the range of 51 to 75%. Consider `C[C@@H](C(N)=O)n1ccc2c(NC(=O)CC3CCCCCC3)cccc2c1=O` [Compound 554], for which the IC50 is 12.3 nM. The inhibition at 0.3 µM under setting [1] is over 76%. Take `C[C@@H](C(N)=O)n1ccc2c(NC(=O)CC3(O)CC(C)(C)CC(C)(C)C3)cccc2c1=O` [Compound 556]: the 50% inhibitory concentration (IC50) turned out to be 257 nM. Moreover, the inhibition at 0.3 µM under setting [1] is 51 to 75%.

Regarding `C[C@@H](C(N)=O)n1ccc2c(NC(=O)CC3(O)CCCCCC3)cccc2c1=O` [Compound 557], the half-maximal inhibitory concentration (IC50) came out at 355 nM. For the same compound, the inhibition at 0.3 µM under setting [1] lay in the range of 26 to 50%. Regarding `O=C(CC1CCCCCC1)Nc1cccc2c(=O)n(C(CO)CO)ccc12` [Compound 560, 2-Cycloheptyl-N-[2-(2-hydroxy-1-hydroxymethyl-ethyl)-1-oxo-1,2-dihydro-isoquinolin-5-yl]-acetamide], the half-inhibitory concentration (IC50) turned out to be 75.6 nM. Besides, the inhibition at 0.3 µM under setting [1] is over 76%. On to `NC(=O)Cn1ccc2c(NC(=O)CC3CCCCCC3)cccc2c1=O` [Compound 561, 2-(5-(2-Cycloheptyl-acetylamino)-1-oxo-1H-isoquinolin-2-yl)-acetamide], for which the IC50 was 38.2 nM. The inhibition at 0.3 µM under setting [1] is over 76%.

As to `NC(=O)Cn1ccc2c(NC(=O)CC3(O)CCCCCC3)cccc2c1=O` [Compound 562], the IC50 is 427 nM. For the same compound, under setting [1], the inhibition at 0.3 µM lay in the range of 26 to 50%. `CC(O)Cn1ccc2c(NC(=O)[C@H]3CC[C@H](C)CC3)cccc2c1=O` (stereo partly drawn) [Compound 563]: under “BzATP 250 uM”, the inhibition at 0.1 µM was in the range of 0 to 25%. For `CC(O)Cn1ccc2c(NC(=O)CC3C[C@@H]4CC[C@H]3C4)cccc2c1=O` (stereo partly drawn) [Compound 564], the inhibition at 0.1 µM (BzATP 250 uM) lay within 51 to 75%.

Consider `CC(O)Cn1ccc2c(NC(=O)C34C[C@@H]5C[C@@H](C[C@@H]3C5)C4)cccc2c1=O` (stereo partly drawn) [Compound 566], for which the inhibition at 0.1 µM (BzATP 250 uM) is 0 to 25%.

In general, IC50 refers to the midpoint of a concentration-inhibition curve.
